The values below come from PubChem BioAssay AID449764 (Southern Research Specialized Biocontainment Screening …, 2010).

For the test, the system named is Mycobacterium tuberculosis H37Rv growth inhibition, no glycerol. Nature of the test: Mycobacterium tuberculosis H37Rv growth inhibition, no glycerol, confirmatory dose response (AID 449764).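 As to all read-outs here: growth read after 7 days of incubation.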 The following applies: for IC90: measured here: IC90 growth inhibition.

Bounds are passed on as bounds.

For the compound `O=C(CCl)NCCCCCCCCCNC(=O)CCl`, the IC50 (in general, the concentration needed to halve the response being measured) was below 0.2 µM and the IC90 (as a rule, the point of the concentration-response curve where the effect stands at 90%) was above 100 µM. For `CC(C)Cc1ccc(C(C)C(N)=NCCc2ccccc2)cc1` (configuration not stated), the IC50 was 24.1 µM and the IC90 worked out at 27.8 µM. The matching figures for `COc1cccc2sc3ccc(C#CC4(N)CCCCC4)cc3c(=O)c12`: 73.8 µM and above 100 µM. `O=[N+]([O-])c1cc([N+](=O)[O-])c2c(=Nc3ccccc3)n(-c3ccccc3)n(O)c2c1`: the IC50 was 8.32 µM and the IC90 is 10.3 µM.

`O=C(Nc1ccccc1)C1=C[C@@H](C2CCCCC2)C[C@@H](OCc2ccc(CO)cc2)O1`: the IC50 is 36 µM and the IC90 is 47.6 µM. Consider `CC1=NN(C(=O)c2ccc(Br)cc2)C(O)(c2ccccc2)C1` (configuration not stated), for which the half-maximal inhibitory concentration (IC50) is 42.3 µM and the IC90 is 52.6 µM.

For the compound `O=C(Nc1ccc(Oc2cccc(C(F)(F)F)c2)nc1)c1cccs1`, the half-inhibitory concentration (IC50) was 85.3 µM and the IC90 is above 100 µM. For the compound `CCCOc1ccc(-c2cnc(SCC(N)=O)nc2N)cc1`, the IC50 was 42.3 µM and the 90% effect concentration (IC90) is above 100 µM. On to `CCOC(=O)c1ccc(NC(=O)Cn2ncc(Cl)c(Cl)c2=O)cc1`, for which the IC50 is below 0.2 µM and the IC90 came out at 2.19 µM.

Regarding `Oc1ccc(C[C@H]2CNCCN2CCCCC2CCCCC2)cc1`, the IC50 was 40 µM and the 90% effect concentration (IC90) is 55.3 µM.

For the compound `Cc1ccnc(Sc2ccc([N+](=O)[O-])cc2[N+](=O)[O-])n1`, the half-maximal inhibitory concentration (IC50) was 19.8 µM and the IC90 came to 29.7 µM. The matching figures for `COC(=O)C(C)Oc1cc(C)ccc1COc1ccc(-n2nc(C)n(C(F)F)c2=O)cc1` (configuration not stated): 21.3 µM and 27.5 µM. Take `C(C#CCCCCCCCCC[n+]1ccccc1)#CCCCCCCCCC[n+]1ccccc1`: the half-inhibitory concentration (IC50) was 4.02 µM and the concentration for an effect of 90% (IC90) amounted to 6.85 µM. For `CN(C(=O)COC(=O)c1ccc([N+](=O)[O-])cc1Cl)C1CCCCC1`, the half-maximal inhibitory concentration (IC50) is 19.2 µM and the IC90 was above 100 µM. In turn, `COc1cc2cc(C(c3nnnn3C(C)(C)C)N3CCc4ccccc43)c(=O)[nH]c2cc1OC` (configuration not stated) gave a 90% effect concentration (IC90) above 100 µM. For `CN1CCN(c2cc(-c3ccccc3)nc3cc(-c4ccc(F)cc4)nn23)CC1`, the IC50 is 16.4 µM and the 90% effect concentration (IC90) worked out at 42.2 µM. For the compound `C=CCNC(=S)N/N=C(\C)c1ccccn1`, the IC50 is 23.4 µM and the concentration for an effect of 90% (IC90) is 45.5 µM. The matching figures for `O=c1c(C=NCCN2CCNCC2)c(O)n(C2CCCCC2)c(=O)n1C1CCCCC1`: 28.4 µM and 32.5 µM.

As to `CN(CCCCCCCCCCN(C)C(=O)Oc1cccc([N+](C)(C)C)c1)C(=O)Oc1cccc([N+](C)(C)C)c1`, the IC50 was 2.17 µM and the IC90 came out at 3.44 µM. Taken in the same sequence, the figures for `Cc1cc(OC(=O)c2cccs2)c2c3c(c(=O)oc2c1)CCCC3` were 4.18 µM and 8.9 µM.

In the case of `CCOC1OC(=O)C(Cl)=C1Nc1ccccc1C` (configuration not stated), the concentration for half-maximal inhibition (IC50) is 3.39 µM and the IC90 amounted to 7.24 µM. Regarding `C=CCn1c(O)c(N=Nc2ccccc2O)c2ccccc21`, the concentration for half-maximal inhibition (IC50) is 16.4 µM and the IC90 was found to be 22.4 µM. Taken in the same sequence, the figures for `Cc1ccc(C2(c3ccc(C)cc3)CC2C(=O)Nc2ccc([N+](=O)[O-])cc2O)cc1` (configuration not stated) were 18.8 µM and 23.6 µM. On to `ClCc1nc2ccccc2c2ccccc12`, for which the IC50 was 20.6 µM and the IC90 came to 28.4 µM.

Take `On1onc2c3cc(-c4ccccc4)nc3ccc21`: the half-inhibitory concentration (IC50) was below 0.2 µM and the IC90 is below 0.2 µM. As to `O=C(Nc1nc2ccc(F)cc2s1)C1CCN(S(=O)(=O)c2cc([N+](=O)[O-])ccc2Cl)CC1`, the IC50 is 12 µM and the concentration for an effect of 90% (IC90) stood at 17.6 µM. `COc1ccc(OC)c(CN2CCN(C(=O)CNC(=O)c3ccc(C(C)(C)C)cc3)CC2)c1`: the IC50 is 63.8 µM and the IC90 was found to be 91.1 µM.

In the case of `Cc1ccc(NC(=O)c2cnc(SCC(=O)NCC3CCCO3)n(C)c2=O)cc1C` (configuration not stated), the half-maximal inhibitory concentration (IC50) was 32 µM and the concentration for an effect of 90% (IC90) is above 100 µM. Turning to `CCCCCc1nc2c(c(=O)c3ccccc3n2C)c(=O)n1C1CCCCCC1`, the IC50 is 55.6 µM and the 90% effect concentration (IC90) stood at 77.5 µM. The matching figures for `CCOC(=O)c1sc(NC(=O)CN2C(=O)NC3(CC(C)CC(C)(C)C3)C2=O)cc1C` (configuration not stated): 34.1 µM and 48.4 µM.

On to `CCOc1cccc2cc(C(=O)Nc3nccs3)c(=O)oc12`, for which the IC50 is 2.4 µM and the IC90 amounted to 15.3 µM. The matching figures for `Nc1cc([N+](=O)[O-])ccc1Nc1ccc(O)cc1`: 30.6 µM and 36.6 µM.

In the case of `Cc1nn(-c2ccccc2)c(C)c1/C=N/NC(=O)c1cc(-c2cccc3ccccc23)n[nH]1`, the half-inhibitory concentration (IC50) was 48.3 µM and the 90% effect concentration (IC90) is above 100 µM. The matching figures for `CCCN(CCC)CCNC(=O)c1cc2c(-c3ccc(Cl)cc3)nn(C)c2s1`: 23.9 µM and 27.1 µM. In the case of `Cc1cccc(-c2ncc(CN3CCC(CO)(CCCc4ccccc4)CC3)cn2)c1`, the half-inhibitory concentration (IC50) is 48.5 µM and the concentration for an effect of 90% (IC90) was 55.1 µM. The matching figures for `Cc1cc(C)c2oc(-c3ccc(C)c(NC(=S)NC(=O)/C=C/c4ccco4)c3)nc2c1`: 77.5 µM and above 100 µM. `Clc1ccc(Nc2ccc(-n3ccnc3)nn2)cc1Cl`: the IC50 was 21.9 µM and the IC90 was 24.8 µM. With `Cc1cc(/C=N/n2cnnc2)c(C)n1-c1ccc(OCc2ccc(Cl)cc2Cl)cc1`, the IC50 was 17.6 µM and the IC90 is 21.5 µM. As for `COc1cccc(N2CCN(c3ncnc4c3[nH]c3ccccc34)CC2C)c1` (configuration not stated), the IC50 is 27.1 µM and the IC90 turned out to be 42.5 µM. Taken in the same sequence, the figures for `Cc1ncsc1CCOC(=O)c1ccc([N+](=O)[O-])cc1` were 20.1 µM and 37.2 µM. As for `C=CCc1c(C)nc(C)nc1N/N=C/c1ccccc1O`, the IC50 was 4.61 µM and the IC90 amounted to 8.85 µM. Turning to `S=C1SCN(Cc2ccco2)CN1Cc1ccco1`, the IC50 is 43.1 µM and the concentration for an effect of 90% (IC90) stood at 54.2 µM. In the case of `COc1ccc(-c2cc3c(=O)n(CC(=O)NCCCN4CCC(Cc5ccccc5)CC4)ncn3n2)cc1`, the IC50 is 28.1 µM and the IC90 amounted to 39.7 µM. `N#CC(C(=O)NCc1ccco1)c1nc2ccccc2nc1N1CCOCC1` (configuration not stated): the half-maximal inhibitory concentration (IC50) was 43 µM and the concentration for an effect of 90% (IC90) was determined as 47.2 µM. The matching figures for `O=C(COC(=O)c1cccs1)c1ccccc1`: 45.8 µM and above 100 µM. Regarding `O=[N+]([O-])c1ccc(-c2nc(-c3cccs3)c(-c3cccs3)[nH]2)cc1`, the IC50 was 20.8 µM and the IC90 is above 100 µM. Taken in the same sequence, the figures for `CNC(C)C#Cc1ccc2oc3cc(C)c(C)cc3c(=O)c2c1` (configuration not stated) were 16.4 µM and 35.5 µM. Taken in the same sequence, the figures for `COc1ccc(-n2c(-c3ccc(Cl)cc3)c[n+]3c2CCc2ccccc2-3)cc1` were 19.4 µM and 26.8 µM.

With `Cc1nn(-c2ccccc2)nc1C(=O)c1c(C)[nH]n(-c2ccccc2)c1=O`, the IC50 was 17.5 µM and the concentration for an effect of 90% (IC90) is 23.2 µM.

As to `CO[C@@]12[C@H](COC(N)=O)C3=C(C(=O)C(C)=C(N)C3=O)N1C[C@@H]1N[C@@H]12`, the IC50 is 74.9 µM and the IC90 is above 100 µM. In the case of `OCCCNc1cc(-c2ccnc(Nc3cccc(Cl)c3)n2)ccn1`, the IC50 was 73.3 µM and the IC90 worked out at 96 µM. For `CCC1C(c2ccccc2)N(C)C(c2ccccc2)CC1(O)c1ccccc1` (configuration not stated), the half-maximal inhibitory concentration (IC50) was 23.9 µM and the IC90 came out at 27.6 µM.

For `COC(=O)CSc1[nH]c2ccc(Br)cc2c1[N+](=O)[O-]`, the half-maximal inhibitory concentration (IC50) is 15.1 µM and the concentration for an effect of 90% (IC90) was found to be 25 µM. As for `O=C(Nc1ncc(Cc2ccccc2Cl)s1)C1=NCCN1`, the IC50 is 23.7 µM and the IC90 is above 100 µM. `O=C(CCl)N1CCN2C(=O)c3ccccc3C12c1ccc(Cl)cc1` (configuration not stated): the half-maximal inhibitory concentration (IC50) is 21.9 µM and the IC90 came to 32.1 µM. Regarding `c1ccc(CN2CCN(c3nc(NCc4ccco4)c4ccccc4n3)CC2)cc1`, the IC50 was 17.2 µM and the IC90 worked out at 22.6 µM.

Turning to `CC1CCN(c2nc(Cl)nc(Nc3ccc([N+](=O)[O-])cc3)n2)CC1`, the IC50 is 78.9 µM and the IC90 was above 100 µM.

Turning to `Cc1ccc(C)c(N2CCN(C(=S)Nc3ccc4nc(N5CCN(C)CC5)cc(C)c4c3)CC2)c1`, the IC50 was 35.7 µM and the IC90 amounted to 55.9 µM.

With `Cc1ccc(OC/C(O)=C(\C#N)c2nc3ccccc3s2)cc1`, the IC50 is 25.7 µM and the IC90 is 41.1 µM. For `Cc1nc(-c2nc(-c3c(C(=O)NNC(=O)c4ccc(Cl)cc4)noc3C)cs2)cs1`, the half-inhibitory concentration (IC50) is 24.7 µM and the IC90 was above 100 µM. Regarding `CCCCOC(=O)CCN1C(=O)/C(=C2\SC(=S)N(CCC(=O)OCCCC)C2=O)SC1=S`, the concentration for half-maximal inhibition (IC50) was 5.44 µM and the IC90 worked out at 10.6 µM. Take `Nc1ccc(Oc2ccc(F)cc2)nc1`: the IC50 is 70.1 µM and the concentration for an effect of 90% (IC90) came out at 85.7 µM. As for `CCCCn1c(O)c(/C=C2/C=CC=N2)c(=O)[nH]c1=O`, the concentration for half-maximal inhibition (IC50) was 12.1 µM and the IC90 was found to be 23.6 µM. Taken in the same sequence, the figures for `CNC[C@@H](Cc1ccccc1)NC[C@@H](CC1CCCCC1)NCCCc1ccccc1` were 7.99 µM and 9.68 µM.

With `CCN(CC)C(=O)c1cc([N+](=O)[O-])cc2c1-c1ccc([N+](=O)[O-])cc1C2=C(C#N)C#N`, the half-inhibitory concentration (IC50) was 21.7 µM and the 90% effect concentration (IC90) worked out at 24.3 µM. In the case of `Cc1cc(C)n(-c2cc(C(C)(C)C)nc3c(-c4ccccc4)cnn23)n1`, the IC50 was 36.1 µM and the 90% effect concentration (IC90) is 47.3 µM.

With `Cc1ccc(-n2cccc2C(=S)N=P(N(C)C)(N(C)C)N(C)C)cc1`, the half-maximal inhibitory concentration (IC50) was 24.6 µM and the IC90 worked out at 26.1 µM. On to `CN1CCc2cc3c(c4c2C1Cc1ccccc1-4)OCO3` (configuration not stated), for which the half-inhibitory concentration (IC50) was 2.35 µM and the IC90 stood at 3.03 µM. As to `Cn1cc(/C=C2\C(=O)NC(=O)N(c3ccccc3)C2=O)c2ccccc21`, the IC50 is 42 µM and the concentration for an effect of 90% (IC90) was above 100 µM. As for `Cc1ccc(NCCC(=O)c2ccc(Br)cc2)cc1`, the IC50 is 26.4 µM and the IC90 came to 43.8 µM. Consider `CCc1ccc(NC2=NCC(c3ccccc3)S2)cc1` (configuration not stated), for which the IC50 is 8.96 µM and the 90% effect concentration (IC90) stood at 16.7 µM.

In turn, `CC(=O)c1cccc(NC(=O)C2C3C=CC(C3=C(c3ccccc3)c3ccccc3)C2C(=O)O)c1` (configuration not stated) registered an IC90 above 50 µM.
